{"source": "patent US20260097111A1", "about": "“ETHER LIPIDS FOR HYPERACTIVATION OF MAMMALIAN DENDRITIC CELLS” (priority 2022, published 2026)", "format_in_all_cases": "cell-based", "key": {"human moDCs [1]": {"tested_on": "human moDCs", "assay": "IL-6 secretion by human moDCs", "settings": "human moDCs, 41.25 μM lipid with R848, compared with R848 + vehicle; FIG. 16"}, "[2]": {"tested_on": "human moDCs and autologous memory CD4+ T cells", "assay": "moDC and memory CD4+ T cell coculture, cytokine secretion and viability", "settings": "for IL-1β: MCC950 10 μM or anti-IL-1β 10 μg/mL added to R848+DGP where named, FIG. 36A", "experimental": "Monocyte Isolation, Storage, and Differentiation into moDC.\nMemory CD4+ T Cell Isolation. The CD14− fraction of the leukapheresis product was collected and used for further isolation of memory CD4+ T cells. First, approximately 5×10^9 total nucleated cells or less of the blood product were pelleted at 200×g for 10 min. The cells were resuspended in two 50 mL conical tubes each containing 25 mL in volume. Cells were then incubated with microbeads targeting red blood cells and granulocytes at 4° C. for 15 min. Cells were loaded on equilibrated MultiMACS columns using the “Deplete” program. Columns were washed twice with separation buffer and the flow-through of peripheral blood mononuclear cells (PBMCs) were collected and counted. The Memory CD4+ T Cell Isolation Kit from Miltenyi was then used to isolate memory CD4+ T cells from the PBMCs. After following the manufacturer's protocol for antibody and microbead incubations, cells were loaded onto equilibrated MultiMACS columns using the “Deplete” program. After 2 column washes using separation buffer, the negative fraction was collected and counted. An aliquot was stained to confirm the purity of the memory CD4 T cell population. […] Vials were placed in CoolCell freezing containers and placed in a −80° C. freezer for no longer than 1 week. Frozen cells were transferred for long-term storage to the vapor phase of a liquid nitrogen freezer until use.\nTreatments of Cells For Analysis of Cytokine Secretion. Human moDCs were plated at 5×10^4 cells/well in 96-well U-bottom tissue culture plates in R10++ media by adding 50 μL of cells per well. To each well, 50 μL of memory CD4 T cells at 2.5×10^6 cells/mL was added. For control conditions where only moDC or only CD4 T cells were plated, the missing cells were replaced with an equivalent volume of R10++ media.\nLyophilized R848 stocks were prepared as described above and frozen at −80° C. for storage. An aliquot of frozen R848 was thawed and further diluted to 22.8 μM in R10++ (8 μg/mL R848). A portion of diluted R848 was combined with MCC950 to reach a concentration of 80 μM MCC950. Another portion of diluted R848 was combined with anti-IL-1β blocking antibody to reach a concentration of 80 μg/mL anti-IL-1β. Cell cultures received 25 μL of these mixes depending on desired treatment. For wells not receiving R848 treatment, an equivalent volume of R10++ media was added to wells. For these three chemicals, final concentrations in the wells were 2.85 μM R848, 10 μM MCC950, and 10 μg/mL anti-IL-1β.\nA4.44% solution of KP407 dissolved in sterile, distilled water was prepared at a temperature of 4° C. DGP from powder was prepared by adding KP407 solution to lipid. […] Sterile 10×PBS was added to the solution resulting in a 1×PBS concentration. […]"}, "human moDCs [3]": {"tested_on": "human moDCs", "assay": "Cell viability of human moDCs (CellTiter-Glo)", "settings": "human moDCs, R848 + lipid with MCC950; FIG. 3A", "experimental": "After an overnight incubation, cells and culture supernatant were used for downstream readouts. One hundred and fifty microliters of cell supernatant were collected. Viability was measured using the CellTiter-Glo assay (Promega) which measures ATP content from cells. Fifty microliters of CellTiter-Glo reagent were added to 50 μL of cells. Luminescence was quantified on a SpectraMax m5e plate reader using an integration time of 500 milliseconds. Viability data were set relative to control conditions where cells were treated with only R848. To measure IL-1β secretion, the human IL-1β Lumit kit (Promega) was used to assay cell culture supernatant. Culture supernatant samples were incubated with enzyme-linked antibodies in a 384-well plate for 1 hour before addition of luminescent substrate. Samples were measured for luminescence with an integration time of 500 milliseconds. IL-1β concentrations of samples was determined by interpolation from a standard curve using 4-parameter logistic regression analysis. Studies were performed on three different human donor samples, and each biological condition was tested in triplicate. Graphed data represent means from each donor.\nMeasurement of Cytokine Secretion and Cell Viability. After an overnight incubation, cells and culture supernatant were used for downstream readouts. One hundred and fifty microliters of cell culture supernatant were collected. Viability was measured using the CellTiter-Glo assay (Promega) which measures ATP content from cells. Fifty microliters of CellTiter-Glo reagent were added to 50 μL of cells. Luminescence was quantified on a SpectraMax m5e plate reader using an integration time of 500 milliseconds. Viability data were set relative to control conditions where cells were treated with only R848. To measure IL-1β secretion, the human IL-1β Lumit kit (Promega) was used. […] Samples were measured for luminescence with an integration time of 500 milliseconds. IL-1β concentrations of samples was determined by interpolation from a standard curve using 4-parameter logistic regression analysis. […]"}}}
{"smiles": "CCCCCCCCCCCCCCCCCCCCCCOC[C@@H](O)COP(=O)(O)O", "note": "[Compound 2, 1-docosyl-sn-glycerol-3-phosphate]", "values": [{"measurement": "IL-6 secretion", "setting": "human moDCs [1]", "value": "IL-6 was secreted at similar levels"}, {"measurement": "production of IL-4, IL5, and IL-13", "setting": "[2]; coculture, 2 days, FIG. 38A-C", "value": "not elevated compared to unstimulated conditions"}, {"measurement": "IL-1β", "setting": "[2]; coculture, 2 days", "value": "minimal IL-1β was detected"}]}
{"smiles": "CC(C)(O)c1coc(S(=O)(=O)NC(=O)Nc2c3c(cc4c2CCC4)CCC3)c1", "note": "[MCC950, reference compound]", "values": [{"measurement": "cell viability", "setting": "human moDCs [3]", "value": "did not affect cell viability"}, {"measurement": "IFNγ", "setting": "[2]; coculture with anti-CD3, 2 days, MCC950 or anti-IL-1β added to R848+DGP where named, FIG. 37A", "value": "IFNγ production was significantly reduced"}, {"measurement": "IL-1β", "setting": "[2]; coculture, 2 days", "value": "IL-1β was significantly reduced"}]}
